Experimental data published in patent publication US6809115B2, “METHODS AND COMPOSITIONS FOR THE TREATMENT OF DIABETES, THE REDUCTION OF BODY FAT, IMPROVEMENT OF INSULIN SENSITIVITY, REDUCTION OF HYPERGLYCEMIA, AND REDUCTION OF HYPERCHOLESTEROLEMIA WITH CHROMIUM COMPLEXES, CONJUGATED FATTY ACIDS, AND/OR CONJUGATED FATTY ALCOHOLS” (Nutrition 21, Inc., priority 2000, dated 2004).

Assays:
[1] = patients treated for obesity; cited from earlier work
[2] = in vivo; cited from earlier work
[3] = rats, oral CrCl3, co-administered NSAID; cited from earlier work
[4] = cited from earlier work
[5] = test system: human skeletal muscle culture; assay: glucose uptake in human skeletal muscle culture; assay type: cell-based; details: FIGS. 1 and 2, axis in pico Moles per milligram
Description: FIG. 2 graphs the effect of CP+CLA on glucose uptake in human skeletal muscle culture.
FIG. 3 illustrates the effect of CP+CLA on glucose uptake in human skeletal muscle culture.
Embodiments of the present invention include compositions which contain a conjugated fatty acid or conjugated fatty alcohol in combination with at least one chromium complex. Additionally, uses of the compositions disclosed herein to treat diabetes and/or obesity are provided. The co-administration of a conjugated fatty acid or conjugated fatty alcohol and at least one chromium complex provides a number of advantages over conventional pharmaceutical regimes for the treatment of diabetes and promotion of weight loss. One advantage of the compositions described herein over conventional treatment regimes for diabetes (such as injection of insulin) and weight loss is that compositions comprising a conjugated compound such as a conjugated fatty acid or conjugated fatty alcohol and at least one chromium complex have no known side effects while still providing efficacy in glucose uptake and weight loss. […] Those bars on FIGS. 1, 2, and 3 representing Chromium Picolinate (CP) and Conjugated Linoleic Acid (CLA) are measured in nanograms per milliliter.

[6] = growing animals; cited from earlier work

CCCCCCCCCCC[C@@H](C[C@@H]1OC(=O)[C@H]1CCCCCC)OC(=O)[C@H](CC(C)C)NC=O [orlistat]
side effects [1]: may have unpleasant gastrointestinal side effects

chromium picolinate
weight loss and body composition [2]: modest weight loss and changes in body composition

CC(C)CC(N(C)C)C1(c2ccc(Cl)cc2)CCC1 (stereo not drawn) [Sibutramine]
side effects [1]: increases blood pressure in a subset of patients

CC(=O)Oc1ccccc1C(=O)O [aspirin, acetylsalicylic acid]
chromium absorption [3]: facilitated

conjugated linoleic acid [CLA]
effect of CLA alone in obese subjects ([4]; added to standard diet and exercise): no effect | fat mass ([4]; subgroup who did not follow diet and exercise well and gained lean body mass, placebo subjects had increase): reduction in fat mass | glucose uptake ([5]; basal (without insulin)): no effect | glucose uptake ([5]; stimulated (with insulin)): no effect | reduction of fat gain [6]: 25%-70%
